Assay results: publication PMC10709440, “High-throughput ligand profile characterization in novel cell lines expressing seven heterologous insect olfactory receptors for the detection of volatile plant biomarkers” (Scientific Reports, 2023)

How the values were obtained:
[1] = target: T1, Drosophila OR10a (Drosophila melanogaster, UniProt Q9VYZ1); assay: cell-based; design: GCaMP6 calcium fluorescence in stable HEK293 OR+ORCO lines; peak dF normalised to 50 uM VUAA1 (=1); conditions: HEK293; relative to 50 uM VUAA1 response; below 0.05 set to 0; read-out: % activation
T1 construct: expressed in transfected cells
T1 sequence (Q9VYZ1 1-406): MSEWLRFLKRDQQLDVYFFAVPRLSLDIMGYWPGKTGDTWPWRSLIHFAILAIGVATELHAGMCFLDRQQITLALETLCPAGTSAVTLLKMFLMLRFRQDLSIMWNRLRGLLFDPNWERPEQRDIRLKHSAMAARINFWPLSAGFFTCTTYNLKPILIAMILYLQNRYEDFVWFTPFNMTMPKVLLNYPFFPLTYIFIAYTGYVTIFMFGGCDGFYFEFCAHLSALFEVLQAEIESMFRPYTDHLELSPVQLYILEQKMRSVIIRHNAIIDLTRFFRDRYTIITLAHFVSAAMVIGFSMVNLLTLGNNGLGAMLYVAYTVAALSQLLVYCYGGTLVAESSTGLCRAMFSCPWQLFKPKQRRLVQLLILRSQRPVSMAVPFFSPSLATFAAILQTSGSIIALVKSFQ
T1 sequence (Q9VNB5 1-486 partner): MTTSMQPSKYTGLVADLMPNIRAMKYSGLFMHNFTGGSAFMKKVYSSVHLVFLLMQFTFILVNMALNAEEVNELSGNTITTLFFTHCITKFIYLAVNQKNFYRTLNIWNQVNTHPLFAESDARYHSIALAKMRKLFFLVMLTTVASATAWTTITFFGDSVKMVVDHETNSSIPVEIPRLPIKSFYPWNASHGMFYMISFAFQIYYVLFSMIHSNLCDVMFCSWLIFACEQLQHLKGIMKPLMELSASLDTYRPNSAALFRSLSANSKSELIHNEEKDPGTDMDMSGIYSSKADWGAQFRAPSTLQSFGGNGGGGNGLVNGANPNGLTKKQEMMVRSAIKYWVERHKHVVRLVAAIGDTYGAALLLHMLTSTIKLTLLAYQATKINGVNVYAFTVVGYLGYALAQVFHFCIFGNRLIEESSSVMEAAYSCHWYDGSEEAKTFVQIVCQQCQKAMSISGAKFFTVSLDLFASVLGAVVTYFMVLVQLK
Method: (§1) Twelve thousand to 18,000 cells were plated into each well of a black wall, transparent bottom 384-well microplate (Greiner) 48 h or 72 h before the measurements and were simultaneously treated with 1 μg/mL doxycycline. Typically, three columns were filled with one OR expressing cell line, each row was treated with the same compound (three technical replicates for each OR), and each responsive VOC-OR combination was measured at least three times on different days. The plate has 24 columns, thus we could record responses in up to eight different cell lines in each plate. On the day of the experiment, the growth medium was replaced with 20 µL assay buffer/well (140 mM NaCl, 5 mM KCl, 2 mM CaCl2, 1 mM MgCl2, 5 mM HEPES-Na, 20 mM glucose, pH 7.3, 340 mOsm). […] Baseline fluorescence (F0) was recorded for 5 s, after which 7 µL VOC buffer (140 mM NaCl, 5 mM KCl, 2 mM CaCl2, 1 mM MgCl2, 5 mM HEPES-Na, 31 mM glucose, 0.1% DMSO, pH 7.3, 340 mOsm) was injected into each well in one row and the fluorescence response was recorded for an additional 30 s, at a rate of one read/sec. VOC solutions (VOC buffer with 4× concentration of the final measured VOC concentration, 9 µL/well was injected) were measured on the same wells in a second round with the same protocol. Each individual concentration of a specific VOC sample was recorded in three wells for the same cell line on the same microplate. The raw data were exported in xls file format, F0 and FMAX values, and the fluorescence intensity changes (∆F) were calculated in Excel (Microsoft) (Supplementary file Data summary.xlsx) using the following equation: ΔF=FMAX-F0/F0 (see also Fig. 1C). On each plate, we recorded the response of each cell line to 50 µM VUAA1. The average of these ∆F values of each cell line were used to calculate the VUAA1-normalized values for the rest of the plate, by dividing VOC response ∆F values by the average VUAA1 response ∆F value of the corresponding OR cell line. Each VOC-OR combination was measured three times as tec The recorded FMAX, F0, ∆F, VUAA1-normalized ∆F values, as well as the OR name, the name of the tested sample, and the final concentration for each well were copied into supplementary file Data summary.xlsx, that was used to summarize all the plates recorded. Here, the averages of the measurements were calculated for each receptor-VOC-concentration combination. […] Each VOC was measured at 1, 10, and 100 µM final concentration on each receptor. VUAA1-normalized response was calculated as described in methods. Values are averages of at least three biological replicates for responsive combinations and two for the non-responsive combinations. The chemical structures of the strong and medium ligands are shown for each cell line. Heat map: white-green colors correspond to the lowest-highest values measured for each cell line.

[2] = target: T2, Drosophila OR71a (Drosophila melanogaster, UniProt Q9VUK5); assay: cell-based; design: GCaMP6 calcium fluorescence in stable HEK293 OR+ORCO lines; peak dF normalised to 50 uM VUAA1 (=1); conditions: HEK293; relative to 50 uM VUAA1 response; below 0.05 set to 0; read-out: % activation
T2 construct: expressed in transfected cells
T2 sequence (Q9VUK5 1-378): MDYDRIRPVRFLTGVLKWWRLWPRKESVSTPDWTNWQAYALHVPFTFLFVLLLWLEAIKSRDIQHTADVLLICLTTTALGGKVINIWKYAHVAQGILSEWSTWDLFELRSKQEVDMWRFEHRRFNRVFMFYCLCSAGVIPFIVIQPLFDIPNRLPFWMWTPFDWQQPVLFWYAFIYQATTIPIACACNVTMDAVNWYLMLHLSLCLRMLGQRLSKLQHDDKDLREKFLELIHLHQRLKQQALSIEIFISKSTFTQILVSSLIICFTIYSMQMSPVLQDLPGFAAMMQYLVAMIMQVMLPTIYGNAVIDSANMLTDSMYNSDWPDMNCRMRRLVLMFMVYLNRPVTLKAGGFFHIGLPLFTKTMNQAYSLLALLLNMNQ
T2 sequence (Q9VNB5 1-486 partner): T1 sequence (Q9VNB5 1-486 partner)
Method: as §1

`CC/C=C/CCO` [e3-hexenol] was tested, and the activity at 1 µM [1] was 0%, the activity at 10 µM [1] was 0% and the activity at 100 µM [1] was 7.4%. It also gave an activity at 1 µM [2] of 0%, an activity at 10 µM [2] of 0% and an activity at 100 µM [2] of 0%.
